Consider one compound from US20070191460A1, “Use of Benzo-Heteroaryl Sulfamide Derivatives for the Treatment of Disease Modification / Epileptogenesis” (priority 2006, published 2007).

The subject of this assay is amygdala kindled rat model of partial epilepsy. Kind of assay: In Vivo, Amygdala Kindling Assay. Also on record: species or system Sprague-Dawley rats. From the text: The development of amygdala kindling is an established model of epileptogenesis. (Amano K, Hamada K, Yagi K, Seino M. Antiepileptic effects of topiramate on amygdaloid kindling in rats. Epilepsy Res. 1998 July;31(2):123-8; Barton M E, White H S. The effect of CGX-1007 and CI-1041, novel NMDA receptor antagonists, on kindling acquisition and expression. Epilepsy Res. 2004 March;59(1):1-12; Loscher W, Honack D, Rundfeldt C. Antiepileptogenic effects of the novel anticonvulsant levetiracetam (ucb L059)in the kindling model of temporal lobe epilepsy. J Pharmacol Exp Ther. 1998 February;284(2):474-9; McNamara J O. Analyses of the molecular basis of kindling development. Psychiatry Clin Neurosci. 1995 June; 49(3):S175-8. Review.; Morimoto K, Katayama K, Inoue K, Sato K. Effects of competitive and noncompetitive NMDA receptor antagonists on kindling and LTP. Pharmacol Biochem Behav. 1991 December;40(4):893-9; Racine, R. J. 1972. Modification of seizure activity by electrical stimulation. II. Motor seizure. Electroencephalogr. Clin. Neurophysiol. 32, 281-294). The kindled rat model of partial epilepsy is an accepted model of epileptogenesis (McNamara J O. Analyses of the molecular basis of kindling development. Psychiatry Clin Neurosci. 1995 June;49(3):S175-8. Review.).
Briefly, the assay procedure was as follows. Adult male, Sprague-Dawley rats weighing between 250-300 g were obtained from Charles River, Wilmington, Mass. were used for experimental procedures. All animals were housed on a 12:12 light dark cycle and permitted free access to both food (Prolab RMH 3000) and water except when removed from the home cage for experimental procedures. Animals were cared for in a matter consistent with the recommendations detailed in the National Research Council Publication, “Guide for the Care and Use of Laboratory Animals” in a temperature controlled, pesticide-free facility. Kindling stimulations were routinely performed between 9 AM-2 PM to avoid any circadian variations.
Compound #1 was triturated in a small volume of 0.5% methylcellulose, sonicated for 10 min, and brought to a final volume with 0.5% methylcellulose. The compound was administered systemically (i.p.) in a volume of 0.04 ml/10 g body weight and all tests were conducted at the pre-determined time of peak effect of 0.5 hours after i.p. administration.
The ability of Compound #1 to block the expression of amygdala kindled seizures was determined. For this study, rats were anaesthetized with a ketamine (120 mg/kg, i.p.) and xylazine (12 mg/kg, i.p.) cocktail. […]
Amygdala kindling was then performed according to the following protocol (Barton and White, 2004). […] The behavioral seizure score and AD duration was recorded for rats in each treatment group. […]

Each structure is given as a SMILES string.

For `NS(=O)(=O)NCc1csc2ccccc12` [Compound #1, N-(benzo[b]thien-3-ylmethyl)-sulfamide], the “behavioral seizure score (Racine scale) at the conclusion of the drug- and stimulus-free period” value (100 mg/kg i.p. 30 min before daily amygdala stimulation (200 μA, 2 s) for up to 13 days, re-challenged without drug after one-week stimulus- and drug-free period, n=10 rats, vehicle=4.6±0.24) was 0.1±0.11. Moreover, the “after-discharge (AD) duration over the kindling acquisition phase, versus vehicle” value (100 mg/kg i.p., daily stimulation, days 1-13, progressive increase in both groups) is “No statistical difference”. Also, under “100 mg/kg i.p., rats, kindling acquisition”, the “acquisition of the full generalized kindled seizure” value is recorded as “prevented the acquisition of the full generalized kindled seizure”. Moreover, the “delay of the acquisition of kindling” value (stimulated in the absence of drug after the drug-free week, seizure score rose parallel to vehicle-treated rats) is given as “delayed the acquisition of kindling by several days”.
